Test results published in paper PMC10021052, “Novel multivalent S100A8 inhibitory peptides attenuate tumor progression and metastasis by inhibiting the TLR4-dependent pathway” (Cancer Gene Therapy, 2023).
Positions of bridges follow the written chain, without caps; N, C: chain ends. Non-standard residues stand in square brackets, D forms with d. Residues, ends and D or L forms follow the SMILES beside them. Chains are numbered I, II in the order given. ξ: configuration not given here. ξK = NCCCCC(N)C(=O)O; Ahx = NCCCCCC(=O)O

Key:
[1] = system: S100A8-mediated cell migration; conditions: ref [8]; cited from earlier work
Excerpt: VEGF is another NFκB-mediated re ...

[2] = system: CD8+ cells; conditions: LLC-tumor-bearing mice; ref [8]; cited from earlier work
[3] = system: human TLR4/MD-2 complex; test: ELISA, TLR4/MD-2 binding to immobilized S100A8-derived peptides (overlapping peptides, alanine scan); conditions: ELISA, peptide immobilized, TLR4/MD-2 2 µg/ml
Description: (§1) S100A8 recombinant protein was purified as previously described. These proteins were immobilized on Maxisorp plates (Thermo Fisher Scientific, Waltham, MA, USA), followed by blocking with protein-free blocking buffer (Thermo Fisher Scientific). TLR4/MD-2 recombinant proteins with various concentrations of candidate peptides were then added to the indicated S100A8-immobilized ELISA plates for 2 h. The plates were washed, incubated with anti-TLR4 antibody, and HRP-conjugated secondary antibody, followed by the addition of substrate. The reaction was stopped by addition a 2N H2SO4 solution. Absorbance OD450/OD650 was measured using a microplate reader (Thermo Fisher Scientific). Maxisorp plates were also used for peptide coating. After blocking with protein-free blocking buffer, the coated plates were washed, and TLR4/MD-2 recombinant protein (2 µg/ml) was added to each well. The plates were incubated with a TLR4 antibody followed by horseradish peroxidase (HRP)-labeled anti-rabbit IgG. For detection of IL8 and VEGF in culture supernatants, SW480 cells were pretreated with the indicated peptides, and followed by stimulation with S100A8 for 24 h. The amount of interleukin-8 (IL-8) or VEGF in the supernatants were analyzed by ELISA kits (R&D Systems, Mineapolis, MN) according to the manufacturer’s instructions.
(§2) Fig. 2 Identification of S100A8 binding sites to human TLR4/MD-2. […] TLR4/MD-2 recombinant proteins were immobilized to the ELISA plate. After blocking, a full length or deletion mutant of S100A8 was added to the plate. The more detailed methods are described in Materials and Methods. […] B A series of overlapping S100A8 synthetic peptides. The TLR4/MD-2 recombinant proteins were added to each well of peptide immobilized plates. The affinity to TLR4/MD-2 was determined. Data are shown as mean ± SD. C The competitive activity was determined using ELISA. Data are shown as mean ± SD. D The TLR4/MD-2 was mixed with S100A8 with/without the indicated peptides, and immunoprecipitated using an anti-TLR4 antibody. TLR4 or S100A8 was visualized. Similar results were obtained in three independent experiments. […] Total RNAs from SW480 cells with/without treatment of the peptide candidates were extracted and qPCR analysis was performed using relevant primer sets and SYBR green. Relative expression levels were compared. […] TEXT PRINTED IN THE PICTURE: (A) Full length: TLR4/MD-2 binding: + | (A) S100A8-ΔC: TLR4/MD-2 binding: − | (A) S100A8-N: TLR4/MD-2 binding: −
Fig. 3 Identification of high affinity peptides to TLR4/MD-2 using alanine scanning based on the peptide #3 amino acid sequences. A Lists of peptides used for alanine scanning. […] Similar results were obtained in three independent experiments.

[4] = system: S100A8-TLR4/MD-2 complex; test: Competitive inhibition of S100A8-TLR4/MD-2 binding (ELISA, S100A8 immobilized; also immunoprecipitation); set-up: species or system human; conditions: ELISA (Fig. 2C), immunoprecipitation with anti-TLR4 antibody (Fig. 2D)
Description: as §1, §2
(§3) Fig. 4 Improvement of competitive inhibition activity by divalent peptide3A5. A The binding capacity was measured at the indicated concentration using an ELISA-based assay. Similar results were obtained in three independent experiments. B SW480 cells were pretreated with 2.5 µM of divalent peptide3A5, and then stimulated with human S100A8 recombinant protein. After 30 min, cell lysates were subjected to western blotting using the indicated antibody. The divalent peptide#3 or peptide3A5 reduced the expression of S100A8-mediated IL-8 (C) and VEGF (D) induction. Total RNAs from SW480 cells with/without treatment of the peptide candidates were extracted and qPCR analysis was performed using relevant primer sets and SYBR green. Relative expression levels were compared. Peptide #3 suppresses S100A8-mediated IL-8(E) and VEGF (F) secretion in SW480 cells.

[5] = system: SW480 cells; test: qPCR, S100A8-mediated IL-8 and VEGF mRNA induction in SW480 cells; type: cell-based, human
Description: SW480 cells were treated with S100A8 in Dulbecco’s Modified Eagle Medium/HamF12 supplemented with 0.1% bovine serum albumin for cytokine induction. Total RNA was extracted using the RNeasy Mini Plus (Qiagen, Hilden, Germany). Complementary DNA was synthesized using the PrimeScript 1st Strand Synthesis kit (Takara Bio, Japan). Quantitative PCR (qPCR) analysis was performed using the PowerUp^TM SYBR^TM Green mixture (Thermo Fisher Scientific) and the StepOnePlus Real Time PCR System (Thermo Fisher Scientific). Gene expression levels were calculated from Ct values, and the relationship between the Ct value and the logarithm of the copy number of a target gene was confirmed to be on a linear line using the corresponding isolated DNA and its serial dilutions as a standard. Thus, the gene expression levels of IL-8 and VEGF were normalized against that of β-actin in each sample. The following primers were used; β-actin, 5′-[…]-3′ and 5′-[…]-3′; IL-8, 5′-[…]-3′ and 5′-[…]-3′; VEGF, 5′-[…]-3′ and 5′-[…]-3′.
as §2, §3

[6] = system: SW480 cells; test: ELISA, IL-8 and VEGF secretion of SW480 cells; type: cell-based, human; conditions: peptide pretreatment, S100A8 24 h, supernatant ELISA, *P < 0.05 vs S100A8
Description: as §1

[7] = system: SW480 cells; test: S100A8-mediated cell migration of SW480 cells; type: cell-based, human; conditions: Supplementary Fig. 1B
[8] = system: TLR4; conditions: ref [33], [34]; cited from earlier work
Excerpt: The difference between TAK-242 and our inhibitory peptides is the target molecules. […] Qin et al. previously generated two peptibodies, peptide-Fc fusion proteins, targeting mouse MDSCs using a competitive peptide phage display platform. Peptibodies recognize the cell surface of mouse MDSCs. Although peptibodies also recognize S100A9, mouse MDSCs ar ...

[9] = system: SW480-transplanted xenograft; test: Tumor growth in SW480-transplanted xenograft model; type: in vivo, Balb nu/nu mice; conditions: SW480 xenograft, various concentrations every 3 days, *P < 0.05 vs control
[10] = target: T1, TLR4/MD-2 complex (Homo sapiens, UniProt O00206+Q9Y6Y9); test: TLR4/MD-2 binding to immobilized tetravalent ILVIK (ELISA); conditions: various TLR4/MD-2 concentrations, one representative of three experiments (Fig. 7F)
T1 construct: TLR4/MD-2 recombinant protein (2 µg/ml) was added to each well
T1 sequence (O00206 24-631 limits assumed): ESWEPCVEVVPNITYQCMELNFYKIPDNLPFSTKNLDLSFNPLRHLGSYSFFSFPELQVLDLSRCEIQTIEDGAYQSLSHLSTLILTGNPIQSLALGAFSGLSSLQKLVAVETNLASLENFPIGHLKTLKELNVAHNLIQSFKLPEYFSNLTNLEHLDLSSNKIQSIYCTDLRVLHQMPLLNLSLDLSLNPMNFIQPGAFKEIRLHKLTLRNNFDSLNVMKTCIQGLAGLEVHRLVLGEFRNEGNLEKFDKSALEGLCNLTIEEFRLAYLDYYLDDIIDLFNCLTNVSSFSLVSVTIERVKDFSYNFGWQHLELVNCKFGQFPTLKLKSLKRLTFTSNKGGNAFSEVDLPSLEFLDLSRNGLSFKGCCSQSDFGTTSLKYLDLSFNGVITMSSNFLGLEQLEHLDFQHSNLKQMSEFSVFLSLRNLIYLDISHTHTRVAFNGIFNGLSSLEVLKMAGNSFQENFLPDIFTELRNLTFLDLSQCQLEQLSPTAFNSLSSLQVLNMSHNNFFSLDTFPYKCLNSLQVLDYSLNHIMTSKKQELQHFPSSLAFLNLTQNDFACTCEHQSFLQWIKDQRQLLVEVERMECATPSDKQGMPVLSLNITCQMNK
T1 sequence (Q9Y6Y9 17-160 partner limits assumed): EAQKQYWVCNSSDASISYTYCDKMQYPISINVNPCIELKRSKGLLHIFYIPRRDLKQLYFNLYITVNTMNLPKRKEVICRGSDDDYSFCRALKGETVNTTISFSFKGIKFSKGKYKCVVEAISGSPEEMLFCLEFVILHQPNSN
Description: as §1, with “For detection of IL8 and VEGF in culture supernatants, SW480 cells were pretreated with the indicated peptides, and followed by stimulation with S100A8 for 24 h.” left out
Fig. 7 Isolation of multivalent S100A8 inhibitory peptides using divalent peptide libraries based on the sequences of peptide3A5. […] The binding affinities to TLR4/MD-2 complex were determined using an ELISA-based assay. […]

[11] = system: tumor cells and macrophages; test: Cytokine/chemokine induction in tumor cells and macrophages; type: cell-based; conditions: possible mechanism scheme, Fig. 7I

Compound: CCCCCC/C=C\CCCCCCCCCC(=O)N[C@H]1[C@H](OC[C@H]2O[C@H](OP(=O)(O)O)[C@H](NC(=O)CC(=O)CCCCCCCCCCC)[C@@H](OCCCCCCCCCC)[C@@H]2O)O[C@H](COC)[C@@H](OP(=O)(O)O)[C@@H]1OCC[C@@H](CCCCCCC)OC [Eritoran, reference compound]
- S100A8-mediated cell migration, Eritoran [1]: inhibited S100A8-mediated cell migration
- intratumoral infiltration of CD8+ cells, Eritoran [2]: increased intratumoral infiltration of CD8^+ cells

Compound: FQEFLILVIK [Peptide #3, S100A8-derived peptide […] from the carboxyl terminal region]
- TLR4/MD-2 binding of peptide [3]: most strongly bound to the TLR4/MD-2 complex among a series of S100A8-derived peptides
- TLR4/MD-2 binding of peptide ([3]; listed as peptide #3): could bind to TLR4/MD-2
- competition for S100A8-TLR4/MD-2 binding [4]: competed for binding between S100A8 and the TLR4/MD-2 complex
- IL-8 induction by peptide alone (agonism) ([5]; no S100A8): failed to induce IL-8 production
- S100A8-mediated VEGF induction (mRNA) ([5]; qPCR, normalized to β-actin): suppressed S100A8-induced VEGF induction
- S100A8-mediated IL-8 induction (mRNA) ([5]; qPCR, normalized to β-actin, *P < 0.05 vs S100A8): reduces the expression of S100A8-mediated IL-8 induction
- S100A8-mediated IL-8 secretion [6]: suppresses S100A8-mediated IL-8 secretion
- S100A8-mediated VEGF secretion [6]: suppresses
- S100A8-mediated IL-8 secretion ([6]; listed as peptide#3): suppressed
- S100A8-mediated cell migration [7]: significantly inhibited

Compound: CCOC(=O)C1=CCCC[C@H]1S(=O)(=O)Nc1ccc(F)cc1Cl [TAK-242, ethyl (6R)-6-[N-(2-Chloro-4-fluorophenyl)sulfamoyl]cyclohex-1-ene-1-carboxylate]
- TLR4 inhibition, site [8]: inhibits TLR4 at intracellular domains

Compound: CC[C@H](C)[C@H](NC(C)=O)C(=O)N[C@@H](CC(C)C)C(=O)N[C@H](C(=O)N[C@H](C(=O)N[C@@H](CCCCN)C(=O)NCCCCCC(=O)NCCCCC(NC(=O)CCCCCNC(=O)[C@H](CCCCN)NC(=O)[C@@H](NC(=O)[C@@H](NC(=O)[C@H](CC(C)C)NC(=O)[C@@H](NC(C)=O)[C@@H](C)CC)C(C)C)[C@@H](C)CC)C(=O)NCCCCC(NC(=O)C(CCCCNC(=O)CCCCCNC(=O)[C@H](CCCCN)NC(=O)[C@@H](NC(=O)[C@@H](NC(=O)[C@H](CC(C)C)NC(=O)[C@@H](NC(C)=O)[C@@H](C)CC)C(C)C)[C@@H](C)CC)NC(=O)CCCCCNC(=O)[C@H](CCCCN)NC(=O)[C@@H](NC(=O)[C@@H](NC(=O)[C@H](CC(C)C)NC(=O)[C@@H](NC(C)=O)[C@@H](C)CC)C(C)C)[C@@H](C)CC)C(N)=O)[C@@H](C)CC)C(C)C (some centres unmarked) [Tetravalent ILVIK] (I: Ac-ILVIK[Ahx][ξK][ξK]-NH2 / II: Ac-ILVIK[Ahx][ξK] / III: Ac-ILVIK[Ahx] / IV: Ac-ILVIK[Ahx]; amide I:7-IV:C, I:8-II:C, II:7-III:C)
- tumor growth, multivalent ILVIK [9]: inhibits tumor growth
- tumor growth, multivalent ILVIK ([9]; listed as tetravalent ILVIK): more effectively inhibited tumor progression
- Kd [10]: 4.58 to 8.78 nM
- induction of cytokines/chemokines [11]: suppress the induction of cytokines/chemokines in both tumor cells and macrophages
